Data on 3 compounds can be found in patent publication US4673436A, “N, S containing corrosion inhibitors” (Exxon Chemical Patents Inc., priority 1986, dated 1987).

A short description of series [1]: Corrosion wheel test, sour (3% NaCl brine, saturated N2 + 500 ppm H2S), Table II. The conditions noted are these: 160° F., 24 hours, 3% NaCl brine only. As to the method:
(§1) Twelve quaternary ammonium salts according to the present invention, were tested under four standard sets of corrosion wheel test conditions. These include a sweet-sour test in an all water system under a range of concentrations from 4-256 ppm (TABLE I). Tests 2 and 3 were run under sweet (TABLE III), and sour conditions (TABLE II) at low (4 ppm) and high (256 ppm) concentrations only. A film persistency test (TABLE IV) was also run for completeness of the screening sequence; however, it was not expected that these water soluble compounds would perform well under these test conditions. Due to the low solubility of some C18 derivatives, 20% activity was adopted as a standard, with the C18 compounds being submitted at 10% activity and added at double concentration to the test fluids. […] Compounds are generally water and low brine soluble, hydrocarbon dispersible with some C18 derivatives being soluble in both fresh water and hydrocarbon.
Blank weight loss: 55.8 ± 1.0 mg
(§2) Fluids: 3% NaCl brine only
Saturated N2 + 500 ppm H2 S
Duplicates and triplicate blanks

The nature of series [2]: Corrosion wheel test, sweet-sour, all water system (3% NaCl brine, saturated CO2 + 100 ppm H2S), Table I. The note with it: 160° F., 24 hours, 3% NaCl brine only. As to the method:
as §1
Blank weight loss: 40 ± 0.9 mg
as §2
(§3) Saturated CO2 + 100 ppm H2 S
(§4) Duplicates w/ triplicate blanks

Series [3] can be described thus: Inhibitor solubility test, Table V. The series is classed as physicochemical. The conditions noted are these: 20% active inhibitor added at 0.5% by volume; observed initially and after 24 hours.
A short description of series [4]: Corrosion wheel test, sweet (50-50 3% NaCl brine - Mentor, saturated CO2 only), Tables III, VI, VII. The note with it: Table VI confirmatory test, 160° F., 24 hours, saturated CO2 only.
Assay in series [5]: as above
The note with it: Table III, 160° F., 24 hours. How it is done:
Twelve quaternary ammonium salts according to the present invention, were tested under four standard sets of corrosion wheel test conditions. These include a sweet-sour test in an all water system under a range of concentrations from 4-256 ppm (TABLE I). Tests 2 and 3 were run under sweet (TABLE III), and sour conditions (TABLE II) at low (4 ppm) and high (256 ppm) concentrations only.
(§5) Fluids: 50-50 3% NaCl brine - Mentor
as §4
Fluids: 50-50 - 3% NaCl brine - Mentor

A short description of series [6]: Film persistent corrosion wheel test (50-50 3% NaCl brine - Mentor, saturated CO2 + 100 ppm H2S), Table IV. The conditions noted are these: 160° F., film 1 hr, rinse 1 hr, run 24 hrs, single data points. As to the method: as §1
Blank weight loss: 58.3 ± 3.3 mg
Film 1 hr, Rinse 1 hr, Run 24 hrs.
as §5, §3
Single data points with triplicate blanks

With `CCCCCCCCCCCCCCCCCC[N+](C)(C)CCCS` [Compound 6], in series [1], the “% Protection @ 4 ppm” value is on record as 14% and the “% Protection @ 256 ppm” value came to 71%. In series [2], the “% Protection @ 4 ppm” value stood at 11%, the “% Protection @ 8 ppm” value is 26%, the “% Protection @ 16 ppm” value came out at 59% and the “% Protection @ 256 ppm” value amounted to 75%. In addition, in series [3], the “Solubility in 5% NaCl brine” value is listed as “insol”, the “Solubility in aromatic naphtha” value is “disp”, the “Solubility in distilled water” value is “sol” and the Solubility in kerosene result is given as “disp”. Further, in series [4], the “% Protection @ 2 ppm” value is reported as 30%, the “% Protection @ 4 ppm” value is reported as 74%, the “% Protection @ 8 ppm” value was 75% and the “% Protection @ 32 ppm” value stood at 80%. In addition, in series [4], the “% Protection @ 128 ppm” value is 85%. Also, in series [5], the “% Protection @ 4 ppm” value is given as 83%. Besides, in series [6], the “% Protection @ 10,000 ppm” value is recorded as 71%.
With `CCCCCCCCCCCCSCC[N+](C)(C)C` [Compound 8], in series [1], the “% Protection @ 4 ppm” value stood at 3% and the “% Protection @ 256 ppm” value was 78%. In series [2], the “% Protection @ 4 ppm” value is 7%, the “% Protection @ 8 ppm” value was determined as 13%, the “% Protection @ 16 ppm” value was determined as 23% and the “% Protection @ 256 ppm” value stood at 81%. Further, in series [3], the “Solubility in 5% NaCl brine” value was “sol”, the “Solubility in aromatic naphtha” value is “disp”, the “Solubility in distilled water” value is “sol” and the Solubility in kerosene result is recorded as “disp”. Moreover, in series [4], the “% Protection @ 2 ppm” value is reported as 9%, the “% Protection @ 4 ppm” value amounted to 19%, the “% Protection @ 8 ppm” value was 18% and the “% Protection @ 32 ppm” value is listed as 62%. Also, the “% Protection @ 128 ppm” value in series [4] is 82%. The “% Protection @ 4 ppm” value in series [5] came to 14%. The “% Protection @ 256 ppm” value in series [5] (256 ppm) is 76%. For the same compound, in series [6], the “% Protection @ 10,000 ppm” value was 19%.
For `CCCCCCCCSCCC[N+](C)(C)C` [Compound 10], in series [1], the “% Protection @ 4 ppm” value was found to be 12% and the “% Protection @ 256 ppm” value is 75%. For the same compound, in series [2], the “% Protection @ 4 ppm” value was determined as 18%, the “% Protection @ 8 ppm” value amounted to 23%, the “% Protection @ 16 ppm” value is given as 24% and the “% Protection @ 256 ppm” value came to 50%. Further, in series [3], the “Solubility in 5% NaCl brine” value is “sol”, the “Solubility in aromatic naphtha” value is on record as “disp”, the “Solubility in distilled water” value is “sol” and the Solubility in kerosene result is “disp”. In addition, in series [4], the “% Protection @ 2 ppm” value is 10%, the “% Protection @ 4 ppm” value was 12%, the “% Protection @ 8 ppm” value amounted to 20% and the “% Protection @ 32 ppm” value came out at 25%. Moreover, in series [4], the “% Protection @ 128 ppm” value is 51%. Besides, in series [5], the “% Protection @ 4 ppm” value is listed as 81%. Also, the “% Protection @ 10,000 ppm” value in series [6] worked out at 8%.
